This test has as its target T1, human HAQ STING isoform (hSTING HAQ) (Homo sapiens, UniProt Q86WV6, G230A/H232R/R293Q/R71H).
T1 construct: THP1 cells express the naturally occurring human HAQ STING isoform (hSTING HAQ); host or cells: THP1
Briefly: IFN-β mRNA level in THP1 cells (qPCR, STING agonist cellular activity). It counts as cell-based. The following applies: compound at 3.6 μM, 2 hrs, IFNβ expression normalized against GAPDH by the 2^-ΔΔCT method, DMSO = 1.0. As for the experimental part: Cellular activity of STING agonists was determined by mRNA levels of IFN-β in THP1 (Otwo Biotech HTX1621) cell line. THP1 cells express the naturally occurring human HAQ STING isoform (hSTING HAQ), which responses to the activation of STING agonists.
THP1 cells were seeded into Falcon 12-well cell Culture Plate (Corning #353043) at 9×10^5 cells per well, in 1 ml complete culture medium (RPMI-1640, GIBCO #C1187500BT) containing 10% heat inactivated FBS (GIBCO #10099141C), 1% Pen-Strep (HyClone SV30010) and incubated at 37° ΔC, 5% CO2 overnight. On day 2, compound (final concentration at 3.6 μM) or DMSO (0.1%, Sigma Aldrich #8418) was added to THP1 cells and further incubated for 2 hrs min at 37° ΔC, 5% CO2. Cells were then collected for RNA extraction.
Total RNA was extracted with TRIzol reagent (Invitrogen #15596026) and […] was used to synthesize first-strand cDNA with Maxima First Strand cDNA Synthesis Kit (TAKARA #RR036A). Quantitative PCR was performed with Maxima SYBR Green qPCR Master Mix (ABI #4367659, USA). The primer sequences used were as follows: GAPDH (5′-[…]-3′, 5′-[…]-3′). INFP3 (5′-[…]-3′,5′-[…]-3′) Real-time PCR was performed on QuantStudio™ 5 Real-Time PCR System (Thermo Fisher). Relative expression levels of IFNβ gene were normalized against the level of GAPDH expression by the 2^−ΔΔCT method. Each PCR reaction was performed in triplicates.
Background: Quantitative PCR measures a nucleic acid by following its amplification.
T1 sequence (Q86WV6 whole entry R71H/G230A/H232R/R293Q, canonical isoform): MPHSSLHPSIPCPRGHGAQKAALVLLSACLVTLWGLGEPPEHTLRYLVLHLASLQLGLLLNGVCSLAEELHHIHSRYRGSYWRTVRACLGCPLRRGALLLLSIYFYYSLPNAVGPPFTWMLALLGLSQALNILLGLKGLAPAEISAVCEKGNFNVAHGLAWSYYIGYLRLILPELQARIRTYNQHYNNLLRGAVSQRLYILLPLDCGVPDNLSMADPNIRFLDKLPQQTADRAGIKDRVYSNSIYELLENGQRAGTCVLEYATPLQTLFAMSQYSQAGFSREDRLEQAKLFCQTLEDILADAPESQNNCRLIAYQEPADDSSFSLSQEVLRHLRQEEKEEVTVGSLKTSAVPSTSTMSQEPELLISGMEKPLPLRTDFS
In the case of `CNc1ccc(N2CCC[C@H](N(Cc3ccnc(OC)c3)Cc3cn4c5c(c(F)c(F)cc5c3=O)OCC4C)C2)cn1` (stereo partly drawn) [Compound 16, 9,10-difluoro-6-((((2-methoxypyridin-4-yl)methyl)((S)-1-(6-(methylamino)pyridin-3-yl)piperidin-3-yl)amino)methyl)-3-methyl-2H-[1,4]oxazino[2,3,4-ij]quinolin-7(3H)-one], the “Relative mRNA INFβ/GAPDH THP 1” value amounted to 114.6.

On to `COc1cc(CN(Cc2cn3c4c(c(N5CCN(C)CC5)c(F)cc4c2=O)OCC3)[C@H]2CCCN(c3ccc(N)nc3)C2)ccn1` [Compound 94, (S)-6-(((1-(6-aminopyridin-3-yl)piperidin-3-yl)((2-methoxypyridin-4-yl)methyl)amino)methyl)-9-fluoro-10-(4-methylpiperazin-1-yl)-2,3-dihydro-7H-[1,4]oxazino[2,3,4-ij]quinolin-7-one], for which the “Relative mRNA INFβ/GAPDH THP 1” value is recorded as 248.8.

For the compound `COc1cnccc1CN(Cc1cn2c3c(c(F)c(F)cc3c1=O)OCC2)[C@H]1CCCN(c2cnccn2)C1` [Compound 86, (S)-9,10-difluoro-6-((((3-methoxypyridin-4-yl)methyl)(1-(pyrazin-2-yl)piperidin-3-yl)amino)methyl)-2,3-dihydro-7H-[1,4]oxazino[2,3,4-ij]quinolin-7-one], the “Relative mRNA INFβ/GAPDH THP 1” value is 1.1.

On to `COc1cc(CN(Cc2cn3c4c(c(N5CCOCC5)c(F)cc4c2=O)OCC3C)[C@H]2CCCN(c3ccc(N)nc3)C2)ccn1` (stereo partly drawn) [Compound 27, 6-((((S)-1-(6-aminopyridin-3-yl)piperidin-3-yl)((2-methoxypyridin-4-yl)methyl)amino)methyl)-9-fluoro-3-methyl-10-morpholino-2H-[1,4]oxazino[2,3,4-ij]quinolin-7(3H)-one], for which the “Relative mRNA INFβ/GAPDH THP 1” value turned out to be 372.4.

For the compound `CNC1CCCN(c2c(F)cc3c(=O)c(CN(Cc4ccnc(OC)c4)[C@H]4CCCN(c5ccc(N)nc5)C4)cn4c3c2OCC4C)C1.Cl` (stereo partly drawn) [Compound 42, 6-((((S)-1-(6-aminopyridin-3-yl)piperidin-3-yl)((2-methoxypyridin-4-yl)methyl)amino)methyl)-9-fluoro-3-methyl-10-(3-(methylamino)piperidin-1-yl)-2H-[1,4]oxazino[2,3,4-ij]quinolin-7(3H)-one Hydrochloride], the “Relative mRNA INFβ/GAPDH THP 1” value stood at 12.1.

As for `COc1cc(CN(Cc2cn3c4c(c(N5CCN(Cc6oc(=O)oc6C)CC5)c(F)cc4c2=O)OCC3C)[C@H]2CCCN(c3ccc(N)nc3)C2)ccn1` (stereo partly drawn) [Compound 25, 6-((((S)-1-(6-aminopyridin-3-yl)piperidin-3-yl)((2-methoxypyridin-4-yl)methyl)amino)methyl)-9-fluoro-3-methyl-10-(4-((5-methyl-2-oxo-1,3-dioxol-4-yl)methyl)piperazin-1-yl)-2H-[1,4]oxazino[2,3,4-ij]quinolin-7(3H)-one], the “Relative mRNA INFβ/GAPDH THP 1” value is recorded as 604.8.

As to `COc1cc(CN(Cc2cn3c4c(c(N5CC6(CCNCC6)C5)c(F)cc4c2=O)OCC3C)[C@H]2CCCN(c3ccc(N)nc3)C2)ccn1` (stereo partly drawn) [Compound 24, 6-((((S)-1-(6-aminopyridin-3-yl)piperidin-3-yl)((2-methoxypyridin-4-yl)methyl)amino)methyl)-9-fluoro-3-methyl-10-(2,7-diazaspiro[3.5]nonan-2-yl)-2H-[1,4]oxazino[2,3,4-ij]quinolin-7(3H)-one], the “Relative mRNA INFβ/GAPDH THP 1” value turned out to be 437.3.

For `Cc1ccc(N2CCC[C@H](N(Cc3ccnc(C)c3)Cc3cn4c5c(c(OCCO)c(F)cc5c3=O)OCC4C)C2)cn1` (stereo partly drawn) [Compound 101, 9-fluoro-10-(2-hydroxyethoxy)-3-methyl-6-((((S)-1-(6-methylpyridin-3-yl)piperidin-3-yl)((2-methylpyridin-4-yl)methyl)amino)methyl)-2,3-dihydro-7H-[1,4]oxazino[2,3,4-ij]quinolin-7-one], the “Relative mRNA INFβ/GAPDH THP 1” value was 332.9.

Regarding `Cc1ccc(N2CCC[C@H](N(Cc3ccnc(C)c3)Cc3cn4c5c(c(F)c(F)cc5c3=O)OCC4C)C2)cn1` (stereo partly drawn) [Compound 9, 9,10-difluoro-3-methyl-6-((((S)-1-(6-methylpyridin-3-yl)piperidin-3-yl)((2-methylpyridin-4-yl)methyl)amino)methyl)-2H-[1,4]oxazino[2,3,4-ij]quinolin-7(3H)-one], the “Relative mRNA INFβ/GAPDH THP 1” value was 332.6.

Turning to `CCN1CCN(c2c(F)cc3c(=O)c(CN(Cc4ccnc(OC)c4)[C@H]4CCCN(c5ccc(N)nc5)C4)cn4c3c2OCC4)CC1` [Compound 93, (S)-6-(((1-(6-aminopyridin-3-yl)piperidin-3-yl)((2-methoxypyridin-4-yl)methyl)amino)methyl)-10-(4-ethylpiperazin-1-yl)-9-fluoro-2,3-dihydro-7H-[1,4]oxazino[2,3,4-ij]quinolin-7-one], the “Relative mRNA INFβ/GAPDH THP 1” value came out at 411.3.

As to `Cc1cc(CN(Cc2cn3c4c(c(F)c(F)cc4c2=O)SCC3)[C@H]2CCCN(c3cnccn3)C2)ccn1` [Compound 97, (S)-9,10-difluoro-6-((((2-methylpyridin-4-yl)methyl)(1-(pyrazin-2-yl)piperidin-3-yl)amino)methyl)-2,3-dihydro-7H-[1,4]thiazino[2,3,4-ij]quinolin-7-one], the “Relative mRNA INFβ/GAPDH THP 1” value was determined as 1.0.

Turning to `COc1cc(CN(Cc2cn3c4c(c(N5CCNCC5C)c(F)cc4c2=O)OCC3C)[C@H]2CCCN(c3ccc(N)nc3)C2)ccn1` (stereo partly drawn) [Compound 41, 6-((((S)-1-(6-aminopyridin-3-yl)piperidin-3-yl)((2-methoxypyridin-4-yl)methyl)amino)methyl)-9-fluoro-3-methyl-10-(2-methylpiperazin-1-yl)-2H-[1,4]oxazino[2,3,4-ij]quinolin-7(3H)-one], the “Relative mRNA INFβ/GAPDH THP 1” value was determined as 1.2.

On to `COc1cc(CN(Cc2cn3c4c(c(N5CC6(COC6)C5)c(F)cc4c2=O)OCC3C)[C@H]2CCCN(c3ccc(N)nc3)C2)ccn1` (stereo partly drawn) [Compound 30, 6-((((S)-1-(6-aminopyridin-3-yl)piperidin-3-yl)((2-methoxypyridin-4-yl)methyl)amino)methyl)-9-fluoro-3-methyl-10-(2-oxa-6-azaspiro[3.3]heptan-6-yl)-2H-[1,4]oxazino[2,3,4-ij]quinolin-7(3H)-one], for which the “Relative mRNA INFβ/GAPDH THP 1” value came out at 986.1.

Turning to `COc1cc(CN(Cc2cn3c4c(c(C5=CCN(C6CC6)CC5)c(F)cc4c2=O)OCC3C)[C@H]2CCCN(c3ccc(N)nc3)C2)ccn1` (stereo partly drawn) [Compound 59, 6-((((S)-1-(6-aminopyridin-3-yl)piperidin-3-yl)((2-methoxypyridin-4-yl)methyl)amino)methyl)-10-(1-cyclopropyl-1,2,3,6-tetrahydropyridin-4-yl)-9-fluoro-3-methyl-2H-[1,4]oxazino[2,3,4-ij]quinolin-7(3H)-one], the “Relative mRNA INFβ/GAPDH THP 1” value came to 316.7.

As to `COc1cc(CN(Cc2cn3c4c(c(N5CCN(C)C(C)C5)c(F)cc4c2=O)OCC3C)[C@H]2CCCN(c3ccc(N)nc3)C2)ccn1` (stereo partly drawn) [Compound 32, 6-((((S)-1-(6-aminopyridin-3-yl)piperidin-3-yl)((2-methoxypyridin-4-yl)methyl)amino)methyl)-10-(3,4-dimethylpiperazin-1-yl)-9-fluoro-3-methyl-2H-[1,4]oxazino[2,3,4-ij]quinolin-7(3H)-one], the “Relative mRNA INFβ/GAPDH THP 1” value turned out to be 814.9.

`Cc1cc(CN(Cc2cn3c4c(c(F)c(F)cc4c2=O)OCC3C)[C@H]2CCCN(c3cnccn3)C2)ccn1` (stereo partly drawn) [Compound 14, 9,10-difluoro-3-methyl-6-((((2-methylpyridin-4-yl)methyl)((S)-1-(pyrazin-2-yl)piperidin-3-yl)amino)methyl)-2H-[1,4]oxazino[2,3,4-ij]quinolin-7(3H)-one]: the “Relative mRNA INFβ/GAPDH THP 1” value amounted to 3848.9.

For the compound `COc1cc(CN(Cc2cn3c4c(c(N(C)C5CCCNC5)c(F)cc4c2=O)OCC3C)[C@H]2CCCN(c3ccc(N)nc3)C2)ccn1.Cl` (stereo partly drawn) [Compound 43, 6-((((S)-1-(6-aminopyridin-3-yl)piperidin-3-yl)((2-methoxypyridin-4-yl)methyl)amino)methyl)-9-fluoro-3-methyl-10-(methyl(piperidin-3-yl)amino)-2H-[1,4]oxazino[2,3,4-ij]quinolin-7(3H)-one Hydrochloride], the “Relative mRNA INFβ/GAPDH THP 1” value was 1.2.

Regarding `COc1cc(CN(Cc2cn3c4c(c(N5CCN(CNC(N)=O)CC5)c(F)cc4c2=O)OCC3C)[C@H]2CCCN(c3ccc(N)nc3)C2)ccn1` (stereo partly drawn) [Compound 26, 1-((4-(6-((((S)-1-(6-aminopyridin-3-yl)piperidin-3-yl)((2-methoxypyridin-4-yl)methyl)amino)methyl)-9-fluoro-3-methyl-7-oxo-3,7-dihydro-2H-[1,4]oxazino[2,3,4-ij]quinolin-10-yl)piperazin-1-yl)methyl)urea], the “Relative mRNA INFβ/GAPDH THP 1” value stood at 3.5.

`COc1cc(CN(Cc2cn3c4c(c(N5CCC(N)C5)c(F)cc4c2=O)OCC3C)[C@H]2CCCN(c3ccc(N)nc3)C2)ccn1.Cl` (stereo partly drawn) [Compound 34, 6-((((S)-1-(6-aminopyridin-3-yl)piperidin-3-yl)((2-methoxypyridin-4-yl)methyl)amino)methyl)-10-(3-aminopyrrolidin-1-yl)-9-fluoro-3-methyl-2H-[1,4]oxazino[2,3,4-ij]quinolin-7(3H)-one Hydrochloride]: the “Relative mRNA INFβ/GAPDH THP 1” value turned out to be 54.8.

The values are drawn from patent US20250171461A1, “STIMULATOR OF INTERFERON GENES (STING) MODULATORS, AND COMPOSITIONS AND METHODS THEREOF” (Geode Therapeutics Inc., priority 2022, published 2025).
